Data reported in patent US11918000B2, “Methods for inducing resistance to virus in a plant, priming a plant to resist viruses, decreasing virus accumulation, or increasing PR1 expression in a plant” (Academia Sinica, priority 2019, dated 2024).

Legend:
[1] = tested on: TMV tagged with green fluorescence protein (TMV-GFP); test: TMV-GFP infection of Nicotiana benthamiana (fluorescent infection foci); assay type: in vivo; settings: N. benthamiana
Method: (§1) Plants were grown in a growth chamber with 10,000 lux fluorescent light and a 16-h light/8-h dark cycle. N. glutinosa (6-7 weeks old, 8-10 leaf stage), N. benthamiana (3-4 weeks old, 5-6 leaf stage) and Brassica juncea (14 days old, 2-3 true-leaf stage) were used for treatment and/or inoculation. For virus inoculation, plants were dusted with 600-grit silicon carbide powder (Sigma-Aldrich, St. Louis, Mo., USA) and mechanically inoculated. Virus inoculum was prepared with 100 ml of 0.1 M potassium phosphate (KP) buffer (61.5% of 0.1 M K2HPO4 and 38.5% 0.1 M KH2PO4, pH 7.0) mixed with 0.1 g of lyophilized leaves of plants infected with Tobacco mosaic virus (TMV) (FIGS. 1, 4A-E, 8 and 9; FIG. 10, 11, 12, 14 and 15; Table 1), or TMV tagged with green fluorescence protein (TMV-GFP) (FIG. 5) (Rabindran, S., and Dawson, W.O. 2001. Assessment of recombinants that arise from the use of a TMV-based transient expression vector. Virology 284:182-189). Different concentrations of TMV purified particle inoculum was diluted with 0.1 M potassium phosphate (KP) buffer (61.5% of 0.1 M K2HPO4 and 38.5% 0.1 M KH2PO4, pH 7.0) (FIGS. 2, 3, and 4F; Table 2). Turnip mosaic virus (TuMV) inoculum was prepared with 0.1 g of fresh leaves from plants infected with TuMV ground with 10 ml of 0.1 M sodium phosphate buffer (0.1 M NaH2PO4, 0.1 M Na2HPO4 and 0.5% Na2SO3, pH 7.4). The severity of TMV or TuMV symptom of infected plants were scored based on external phenotype (FIG. 15). Transmission electron microscope (Philips Electronic Instruments, Mahwah, N.J.) was used to examine TMV particles of different inoculums.
(§2) Whole plants were sprayed with 0.4 ml H2O, VB, culture filtrate derived from microorganism or 5 mM salicylic acid (SA, Sigma-Aldrich) for total of three times with a 24-h interval between each spray. Twenty-four hours after the final treatment, plants were rubbed with the virus inoculum.
Photographs of TMV-GFP fluorescent infection foci in N. benthamiana leaves were taken under UV light at 5 and 7 days post-inoculation (dpi), and the level of fluorescence as well as the areas of fluorescent infection sites in each leaf were measured by using ImageJ v1.47. All imaging was conducted under identical illumination and exposure conditions to allow for comparisons. Mean values of areas of all infection foci per treatment were calculated.
To analyze which virus infection steps are affected in F8-culture filtrate-treated plants, we used TMV tagged with green fluorescence protein (GFP) to inoculate N. benthamiana and monitor the infection of TMV. […] To compare TMV-GFP accumulation in each foci, we used a puncher to collect GFP foci under UV light and used qRT-PCR to quantify the TMV-GFP expression. […]

[2] = tested on: PR-1; test: Relative expression of PR-1 by qRT-PCR; assay type: in vivo, Nicotiana benthamiana; settings: N. benthamiana, no TMV, 24 hpt
Source text: Total RNA was isolated by use of Trizol (Invitrogen, Bethesda, Md.) according to the manufacturer's instruction. Residual DNA was removed by using the TURBO DNA-free kit (Ambion, Austin Tex., USA). cDNA was synthesized by using the PrimeScript RT-PCR Kit (Takara Bio, Shiga, Japan). Quantitative RT-PCR (qRT-PCR) involved the SYBR protocol (Life Technologies) and the ABI 7100 real-time PCR system (Applied Biosystems, Carlsbad, Calif.). For quantitative analysis, actin was used as an input control. Relative fold change in mRNA expression was determined by calculating 2^−ΔΔCt. The sequences of primers used are in Table S1.
We collected both the local and upper un-treated (systemic) leaves at 24 h post-treatment (hpt) to analyze the expression of the PR-1 gene (a SAR marker gene) (Zheng et al., 2015). PR-1 gene expression was detected in SA- and VB- but not F8-culture filtrate-treated local leaves (FIG. 4C). […] In addition, we collected leaves from plants with whole plants pretreated with H2O, SA, VB or F8-culture filtrate. Consistently, PR-1 gene induction was detected in leaves of whole plants pretreated with SA and VB but not whole plants pretreated with F8-culture filtrate at 24 hpt (FIG. 4E).
To analyze how F8-polysaccharide induces plant viral resistance, we measured the expression of SA-, JA- and ET-responsive immune marker genes in H2O- and F8-polysaccharide-treated plants (Cortes-Barco et al., 2010; Milling et al., 2011; Zhu et al., 2014). We first confirmed the induction of marker genes induced by SA (PR-1 and PR-2), JA (PDF-1.2 and PR-4), and ET (Osm and EREBP) in N. benthamiana (FIG. 14A). Plants were pretreated with H2O and F8-polysacccharide for total of three times with a 24-h interval between each spray as described previously, then leaves were collected from one set of individual plants at 0, 12, 24, 36, 48, 72, and 96 hpt. […] We detected the accumulation of TMV and the expression of SA-, JA- and ET-responsive immune marker genes (FIG. 9A-D, FIGS. S5C and D). […]

[3] = tested on: Tobacco mosaic virus (TMV); test: Infection rate of TMV on Nicotiana benthamiana, inoculum from lyophilized infected leaves, RT-PCR detection; assay type: in vivo; settings: N. benthamiana
Method: as §1, §2
Besides using N. glutinosa for our initial screening, we also used N. benthamiana, a host that is highly susceptible to TMV, for resistance assay. N. benthamiana was pretreated with H2O, SA, VB, F2- or F8-culture filtrate as for pretreatment of N. glutinosa. All treated plants were inoculated with TMV inoculum made from lyophilized leaves of TMV infected N. benthamiana. […] With RT-PCR to detect TMV on all treated plants, the infection rate was much reduced with F8-culture filtrate than H2O, SA, VB or F2-culture filtrate pretreatment (Table 1). In our repeat experiments, the infection rate of TMV-inoculated plants with F8-culture filtrate pretreatment even decreased to 0% (Table 1). […] We prepared at least 7 different batches of F8-culture filtrate, and the ability to induce resistance against TMV was consistent between different batches (Table 1).

[4] = tested on: Tobacco mosaic virus (TMV) particle; test: Infection rate of purified TMV particle on Nicotiana benthamiana; assay type: in vivo; settings: Table 2, N. benthamiana, 7 dpi, RT-PCR, SA 5 mM
Method: as §1
Leaves of TMV-infected N. benthamiana were harvested approximately 5 days after inoculation. The initial purification of TMV virus particles followed the protocol as described by Gooding and Hebert (1967) with modifications. Briefly, polyethylene glycol with molecular weight 8000 (PEG 8000) (Sigma-Aldrich) was used instead of PEG 6000. In addition, the semi-purified preparation was submitted to linear density sucrose gradient (0-18%), and ultracentrifuged at 228,000×g for 1.5 h. The light scattering region was collected and diluted with 100 ml of suspension buffer (35 mM Na2HPO4, 15 mM NaH2PO4 and 0.05% 2-mercaptoethanol, pH7.2). NaCl (0.4 g) and PEG 8000 (4 g) were added and stirred for at least 1 h on ice, then centrifuged at 9000×g for 15 min at 4° C. The pellets were re-suspended in 1 ml of suspension buffer. The concentration of the purified TMV suspension was determined (A260 nm=[…] for 1 mg/mL of TMV) with a Nanodrop (ND-1000, Thermo Fisher Scientific, MA, USA).
as §2
In addition to using inoculum made from lyophilized leaves of TMV infected N. benthamiana, we also used different concentrations (1 μg/ml, 10 μg/ml and 50 μg/ml) of purified TMV particles as inoculum to inoculate N. glutinosa and N. benthamiana pretreated with H2O, SA, VB, or F8-culture filtrate (FIG. 2, FIG. 3). […] The infection rate of TMV on N. benthamiana was also detected by use of qRT-PCR (Table 2).

[5] = tested on: Tobacco mosaic virus (TMV); test: Symptoms / disease index induced by TMV in Nicotiana benthamiana; assay type: in vivo; settings: N. benthamiana; systemic protection test; 7 dpi
Method: FIG. 15A and FIG. 15B show disease index of N. benthamiana inoculated with TMV and Brassica juncea inoculated with TuMV. (FIG. 15A) N. benthamiana were inoculated with TMV. The disease index was classified into 4 levels according to the degree of yellowing, stunting and wilting at 7 dpi. (FIG. 15B) Brassica juncea were inoculated with TuMV. The disease index was classified into 3 levels according to the degree of leaf mosaic and stunting at 13 dpi.
Plants were grown in a growth chamber with 10,000 lux fluorescent light and a 16-h light/8-h dark cycle. N. glutinosa (6-7 weeks old, 8-10 leaf stage), N. benthamiana (3-4 weeks old, 5-6 leaf stage) and Brassica juncea (14 days old, 2-3 true-leaf stage) were used for treatment and/or inoculation. […] Virus inoculum was prepared with 100 ml of 0.1 M potassium phosphate (KP) buffer (61.5% of 0.1 M K2HPO4 and 38.5% 0.1 M KH2PO4, pH 7.0) mixed with 0.1 g of lyophilized leaves of plants infected with Tobacco mosaic virus (TMV) (FIGS. 1, 4A-E, 8 and 9; FIG. 10, 11, 12, 14 and 15; Table 1), or TMV tagged with green fluorescence protein (TMV-GFP) (FIG. 5) (Rabindran, S., and Dawson, W.O. 2001. Assessment of recombinants that arise from the use of a TMV-based transient expression vector. Virology 284:182-189). […] The severity of TMV or TuMV symptom of infected plants were scored based on external phenotype (FIG. 15). […]

[6] = Table 1, lyophilized leaf inoculum, 7 dpi, RT-PCR, SA 5 mM
[7] = Table S3, fractions derived from F8-culture filtrate, 7 dpi, RT-PCR

O=C(O)c1ccccc1O [SA, salicylic acid]
number of initial TMV-GFP infection foci ([1]; 5 dpi): reduced | mean TMV accumulation per foci ([1]; qRT-PCR of punched GFP foci): similar | infection rate of TMV-GFP: number of plants exhibiting green fluorescence under UV illumination to total TMV-GFP inoculated plants, Exp. 1 ([1]; Table S2, 7 dpi, SA 5 mM): 5/5 | infection rate of TMV-GFP: number of plants exhibiting green fluorescence under UV illumination to total TMV-GFP inoculated plants, Exp. 2 ([1]; Table S2, 7 dpi, SA 5 mM): 4/6 | PR-1 gene expression in treated local leaves ([2]; local leaves pretreated): detected | PR-1 gene expression on systemic (upper untreated) leaves ([2]; local leaves pretreated): increased PR-1 gene expression | PR-1 gene induction in leaves of whole plants pretreated ([2]; whole plant pretreated): detected | infection rate of TMV-inoculated plants ([3]; pretreatment before TMV inoculation): 100% | infection rate of TMV: number of plants detected with TMV to total TMV inoculated plants, Exp. 2 [3, 6]: 5/5 | infection rate of TMV: number of plants detected with TMV to total TMV inoculated plants, Exp. 3 [3, 6]: 4/5 | infection rate of TMV: number of plants detected with TMV to total TMV inoculated plants, Exp. 4 [3, 6]: 5/5 | infection rate of TMV: number of plants detected with TMV to total TMV inoculated plants, Exp. 5 [3, 6]: 5/5 | infection rate of TMV: number of plants detected with TMV to total TMV inoculated plants, Exp. 6 [3, 6]: 5/5 | infection rate of TMV: number of plants detected with TMV to total TMV inoculated plants, Exp. 7 [3, 6]: 5/5 | infection rate of TMV: number of plants detected with TMV to total TMV inoculated plants, Exp. 8 [3, 6]: 5/5 | infection rate of TMV: number of plants detected with TMV to total TMV inoculated plants, Exp. 1 ([3]; Table 1, three sprays at 24-h intervals, inoculum from lyophilized TMV-inoculated leaves, 7 dpi, RT-PCR, SA 5 mM): 5/5 | infection rate of TMV: number of plants detected with TMV to total TMV inoculated plants, Total ([3]; Table 1, sum of Exp. 1-8, 7 dpi, RT-PCR): 39/40 | infection rate of TMV: number of plants detected with TMV to total TMV inoculated plants, Exp. 1 [3, 7]: 5/5 | infection rate of TMV: number of plants detected with TMV to total TMV inoculated plants, Exp. 2 [3, 7]: 5/5 | infection rate of TMV: number of plants detected with TMV to total TMV inoculated plants, Exp. 3 [3, 7]: 5/5 | infection rate of TMV: number of plants detected with TMV to total TMV inoculated plants, Total ([3]; Table S3, sum of Exp. 1-3, 7 dpi, RT-PCR): 15/15 | infection rate of TMV particle: number of plants detected with TMV to total inoculated plants, Exp. 1, 1 μg/ml ([4]; TMV particle 1 μg/ml): 6/6 | infection rate of TMV particle: number of plants detected with TMV to total inoculated plants, Exp. 2, 1 μg/ml ([4]; TMV particle 1 μg/ml): 6/6 | infection rate of TMV particle: number of plants detected with TMV to total inoculated plants, Exp. 3, 1 μg/ml ([4]; TMV particle 1 μg/ml): 15/15 | infection rate of TMV particle: number of plants detected with TMV to total inoculated plants, Exp. 1, 10 μg/ml ([4]; TMV particle 10 μg/ml): 6/6 | infection rate of TMV particle: number of plants detected with TMV to total inoculated plants, Exp. 1, 50 μg/ml ([4]; TMV particle 50 μg/ml): 6/6 | viral symptoms with pretreatment of only local (lower) leaves and TMV inoculation of upper untreated leaves [5]: severe viral symptoms
